Results on two compounds are retold here after patent publication US9410142B2, “Dendrimer-based excipients for the attenuation of protein aggregation” (Massachusetts Institute of Technology, priority 2010, dated 2016).

The nature of series [1]: Partial molar volume from density measurements of dendrimer only solutions. Format: physicochemical.
Series [2] has as its target T1, α-chymotrypsinogen A (aCgn) (Bos taurus, UniProt P00766). The series is described as follows: DSC denaturation midpoint temperature (Tm) of aCgn. Type of series: physicochemical, Bovine. The settings on record: for dTm/d[3] aCgn denaturation midpoint temperature increment: 1 mg/mL aCgn, 20 mM sodium citrate pH 5, maximum dendrimer 0.2 mol/L; for rate of increase of Tm of aCgn: concentrations less than 0.2 mol/L. As for the experimental part: The thermodynamic stability of aCgn in the presence of the arginine salts was determined by DSC (Microcal VP-Differential Scanning calorimeter located in the Biophysical Instrumentation Facility (BIF) at MIT). Each reading began with a minimum of three buffer-buffer up and down scans (in this case, the buffer also contains the cosolute of interest) to establish a reproducible thermal history followed by a single protein-buffer up scan. aCgn was analyzed at a concentration of 1 mg/mL in a 20 mM sodium citrate pH 5 buffer containing the cosolute of interest and a scan rate of 90° C./hour. The data was analyzed in the MicroCal Origin® plotting software. In the analysis, the last buffer-buffer reference scan was first subtracted from the data and then the data was normalized with respect to the protein concentration, cell volume, and scan rate. The baseline (which was progressed through the peak) was then subtracted from the plot and the denaturation midpoint temperature, Tm, was taken as the temperature at the peak maximum of the unfolding event. For each arginine salt, three concentrations (including zero concentration) were tested and Tm values with respect to cosolute concentration were fitted to a linear trend.
The thermostability of aCgn at 1 mg/mL in the presence of the modified dendrimers was assessed by determining the denaturation midpoint temperature (Tm) from DSC scans, which is a qualitative indicator of how the conformational stability of the protein is perturbed. Ghosh K et al. (2009) Proc Natl Acad Sci USA 106:10649-10654.

The target of series [3] is T1, α-chymotrypsinogen A (aCgn). The series is described as follows: Preferential interaction with aCgn by vapor pressure osmometry (VPO). Particulars: for Γ23/[3] preferential interaction with aCgn: 50 mg/mL aCgn, 20 mM sodium citrate pH 5, maximum dendrimer 0.2 mol/L; for Γexp preferential interaction coefficient of aCgn: 0.17-[…] dendrimer salt, VPO. Format: physicochemical, Bovine. The method, then:
Osmolality measurements were carried out according to the previously described procedure. For improved accuracy, all samples were prepared gravimetrically using a Mettler Toledo balance with a precision of 0.1 mg. Partial molar volume values of the
Stock solutions of both BSA and lysozyme and stock solutions of the cosolutes were each prepared in a 40 mM sodium phosphate buffer, pH 6.0 (aCgn measurements were conducted in 20 mM sodium citrate buffer, pH 3.5 or pH 5.0). Stock solutions of the cosolutes were used so that a series of samples could be easily produced with varying solute concentrations by dilution with water and buffer. The protein stock solutions were further purified by placing the solutions under dialysis for 48 hours at room temperature against two changes of buffer (1 L each). […] To determine the concentration, samples of each stock solution were diluted gravimetrically with water to a final optical density of about 1.0 and the concentration determined spectrophotometrically with a PerkinElmer Lambda 35 UV/Vis spectrometer. It should be noted that the protein stock solutions were stored at 4° C. and used within one week of their preparation.
[formula] A Wescor Vapro® vapor pressure osmometer (model 5520) was used for all osmometry measurements. The instrument was calibrated using 0.1, 0.29, and 1 mol/kg osmolality standards provided by Wescor. Due to slight drifts in the calibration points, the instrument was recalibrated after every four measurements and the thermocouple was cleaned daily using concentrated ammonium hydroxide followed by a rinse with HPLC grade water. […] The data sets for each cosolute included at least 16 individually made solutions (both for the sets with and without the protein). Each sample contained approximately 80 μL of solution (40 μL of diluted cosolute stock solution and 40 μL of the protein stock solution). A minimum of three measurements on each solution were made. If the standard deviation for a particular solution was greater than 2 mmol/kg, more measurements were taken or another sample was prepared. For a given solute, data representing the dependence of osmolality on solute molality were fitted by a quadratic equation, with all fitting parameters floated. Data were weighted by the standard deviation of the individual osmolality measurements for the same solution using the nonlinear fitting program Igor Pro.
To gain further insight into how the modified dendrimer salts inhibit protein-protein interactions, preferential interaction coefficient (Γ23) values at various concentrations were determined, both experimentally via vapor pressure osmometry (VPO) measurements and computationally via MD simulations. The experimental results for the interaction between modified generation 0 PAMAM dendrimers and aCgn are expressed in Table 2, which summarizes the polynomial fit and uncertainty of the experimental data. Theoretical preferential interaction coefficient values were computed from the MD simulation using the procedure outlined in our previous work. Baynes B M and Trout B L (2003) J Phys Chem B 107:14058-14067; Shukla D et al. (2009) J Phys Chem B 113:12546-12554.

For the next series, the target named is Concanavalin A (Con A) (Canavalia ensiformis, UniProt P02866). The series is described as follows: Con A aggregation / shelf-life at pH 6.5 and 37° C. Type of series: physicochemical. The settings on record: isotonic concentrations, 40 mM sodium phosphate pH 6.5, 37° C., time for 5% loss of protein vs no additive. As for the experimental part: This Shelf-Life Extension Factor was determined by comparing the length of time, t95, for a 5% loss of protein when in the presence of the compounds to the original length of time, t95,0 for a 5% loss. For comparison purposes, isotonic concentrations (as determined by VPO) of the compounds were used and Shelf-Life Extension Factor values for commonly used excipients at isotonic concentrations are shown as well. Shelf-life values of aCgn were determined at 52.5° C. and at 37° C. for Con A.

As to `N=C(N)NCCNC(=O)CCN(CCC(=O)NCCNC(=N)N)CCN(CCC(=O)NCCNC(=N)N)CCC(=O)NCCNC(=N)N.O=P(O)(O)O.O=P(O)(O)O.O=P(O)(O)O.O=P(O)(O)O.O=P(O)(O)O.O=P(O)(O)O` [Gdm(H2PO4)], the “V0 partial molar volume at infinite dilution” value in series [1] was 0.7254 L/mol. In series [2], the “dTm/d[3] aCgn denaturation midpoint temperature increment” value was found to be 37.4 K * L/mol and the “rate of increase of Tm of aCgn” value turned out to be 37.4 ° C.*M^−1. Also, in series [3], the “Γ23/[3] preferential interaction with aCgn” value is listed as −15.8 ± 5.0 mol/mol and the “Γexp preferential interaction coefficient of aCgn” value was −2.9. Also, the “Con A t95/t95, 0 (Shelf-Life Extension Factor)” value (“Con A t95/t95” below) at Concanavalin A (Con A) (listed as Dend. 0 Gdm(H2PO4)) is 1.6. In addition, the “Con A t95/t95” value at Concanavalin A (Con A) (listed as phosphate form) is listed as “minimal improvement”.
As to `N=C(N)NCCNC(=O)CCN(CCC(=O)NCCNC(=N)N)CCN(CCC(=O)NCCNC(=N)N)CCC(=O)NCCNC(=N)N.O=S(=O)(O)O.O=S(=O)(O)O.O=S(=O)(O)O` [Gdm(SO4)1/2], the “V0 partial molar volume at infinite dilution” value in series [1] was 0.5665 L/mol. In addition, in series [2], the “dTm/d[3] aCgn denaturation midpoint temperature increment” value was 15.2 K * L/mol and the “rate of increase of Tm of aCgn” value stood at 15.2 ° C.*M^−1. Further, in series [3], the “Γ23/[3] preferential interaction with aCgn” value was −17.0 ± 4.4 mol/mol and the “Γexp preferential interaction coefficient of aCgn” value was −3.1. Further, the “Con A t95/t95” value at Concanavalin A (Con A) was determined as 5.9.
